Test results taken from US4626505A, “Selectable markers for yeast transformation” (E. I. Du Pont de Nemours and Company, priority 1984, dated 1986).

Test system: industrial S. cerevisiae strains ATCC 7754 and ATCC 4921
Assay: Growth/resistance of industrial yeast strains, untransformed and transformed with pCP2-4-10
Format: cell-based, Saccharomyces cerevisiae
Settings: for resistance of industrial transformants to structurally related sulfonylurea growth inhibitors: ATCC 7754 and ATCC 4921 transformed with pCP2-4-10
Protocol: […]. […] The optimum period of incubation with glusulase for producing spheroplasts was determined to be approximately 3 hours.
The resulting industrial transformants were resistant to other, structurally related sulfonylurea growth inhibitors in addition to sulfometuron methyl. These inhibitors included N-[(4-methoxy-6-methyl-pyrimidin-2-yl)aminocarbonyl]-2-nitrobenzenesulfonamide; N-[(4,6-dimethoxy-pyrimidin-2-yl)-aminocarbonyl]-2-methylthiobenzenesulfonamide; and 2-[[(4-chloro-6-methoxypyrimidine-2-yl)amino carbonyl]aminosulfonyl]benzoic acid, ethyl ester.

## CCOC(=O)c1ccccc1S(=O)(=O)NC(=O)Nc1nc(Cl)cc(OC)n1 [2-[[(4-chloro-6-methoxypyrimidine-2-yl)aminocarbonyl]aminosulfonyl]benzoic acid, ethyl ester]
  resistance of industrial transformants to structurally related sulfonylurea growth inhibitors: resistant

## COc1cc(OC)nc(NC(=O)NS(=O)(=O)c2ccccc2SC)n1 [N-[(4,6-dimethoxy-pyrimidin-2-yl)-aminocarbonyl]-2-methylthiobenzenesulfonamide]
  resistance of industrial transformants to structurally related sulfonylurea growth inhibitors: resistant

## COc1cc(C)nc(NC(=O)NS(=O)(=O)c2ccccc2[N+](=O)[O-])n1 [N-[(4-methoxy-6-methyl-pyrimidin-2-yl)aminocarbonyl]-2-nitrobenzenesulfonamide]
  resistance of industrial transformants to structurally related sulfonylurea growth inhibitors: resistant

## COC(=O)c1ccccc1S(=O)(=O)NC(=O)Nc1nc(C)cc(C)n1 [sulfometuron methyl]
30 μg/mL, ATCC 7754 and ATCC 4921, untransformed
  growth of untransformed wild-type strains: completely inhibited
